{"source": "patent US20100137344A1", "about": "“INDUCTION OF ANALGESIA IN NEUROPATHIC PAIN” (University Court of the University of Edinburgh, priority 2006, published 2010)", "tested_on": "rats with chronic constriction injury (CCI) to sciatic nerve", "experiment": "Topical application to paws of CCI rats, behavioural reflex testing (thermal PWL, mechanical PWT)", "assay_type": "in vivo, rat", "conditions": "for % reversal of ipsilateral sensitisation, PWL / % reversal of ipsilateral sensitisation, PWT: 10-25 minutes after icilin", "method": "Pain models were generated under halothane anaesthesia (Zeneca, Cheshire, UK). For the chronic constriction injury (CCI) model of neuropathic pain, four ligatures were tied loosely to constrict the sciatic nerve at mid-thigh level (as described previously^[39]). An inflammatory pain model was generated by injecting 100 μl of Complete Freund's Adjuvant (CFA, Sigma-Aldrich Ltd) into the ventral surface of the right hindpaw^[39]. A model of peripheral demyelination-induced pain was produced by focal application of lysolecithin to the sciatic nerve^[40]. Peak behavioural sensitisation was observed post-surgically between days 10-16 for CCI, 1-3 for CFA, and 7-14 for lysolecithin, when pharmacological and electrophysiological experiments and tissue removal were conducted.\nThermal sensitivity was assessed by measuring paw withdrawal latency (PWL, s) in response to a noxious thermal stimulus (Hargreaves' thermal stimulator, Linton Instrumentation, Diss, UK) directed to the hindpaw mid-plantar glabrous surface. Mechanical sensitivity was recorded as the paw withdrawal threshold (PWT, mN/mm^2) to calibrated von Frey filaments (Stoelting, Ill., US), as previously described^[39]. Sensitivity to noxious cold was assessed by placing animals in a waterbath with an aluminium floor containing 1 cm deep 4° C. water and counting the time the paw was held suspended over a 20 s period.\nIcilin was applied at concentrations of 2.5-500 μM (in water with 0.2% DMF), by placing CCI or naïve rats unrestrained for 5 min in a 1 cm deep waterbath (sufficient to cover paws), which was thermostatically controlled to a temperature of 30° C., or by very lightly anaesthetising rats and immersing hindpaws in small tubes containing 5 ml icilin (500 μM-5 mM, with a vehicle of 45% dimethylformamide in 0.2% aqueous Tween 80) for 5 min, followed by sensory testing for 60-80 mins. The effects of (−)-menthol and its stereoisomers isomenthol (1S,2R,5R-menthol,) and (+)-menthol (1S,2R,5S(+)-menthol) (4-16 mM in 80% ethanol) were also assessed. Relevant vehicles were always assessed in similar experiments. As a contrast, the effect of cinnamaldehyde (1.5 mM in water) and the effect of cinnamaldehyde with additional icilin (80 μM in water with 0.2% DMF) were assessed in naïve animals. The effects of icilin (80 μM) were further assessed in CCI animals that had undergone antisense and mis-sense treatment for knockdown of TRPM8 or immediately following intrathecal injection of either LY 341495 or UBP 1112. […] The effects of brief paw immersion at different temperatures (10-22° C. for 5 min) on CCI rats were assessed by mechanical testing. The effects of intrathecal LY 341495 or UBP 1112 on the reversal of ipsilateral sensitisation in CCI following a 16° C. cool challenge for 5 min were measured. Reflex testing commenced 5 minutes following challenge, unless animals had been anaesthetised, in which case 15 minutes was allowed for recovery. Six replicate animals were tested in all pharmacological experiments.\nAntisense and mis-sense oligonucleotides were 22-mers with phosphorothioate bonds at the last two positions at 5′ and 3′ ends (MWG Biotech, Ebersberg, Germany). Antisense extended from base −10 to base +12 relative to the start of the open reading frame for the rat TRPM8 gene: 5′ C*T*CGAAGGACATCTTGCCGT*G*G 3′, where * represents phosphorothioate linkages. Mis-sense was designed with 4 inversions of C/G or A/T as appropriate at residues 3, 11, 14 and 22, preserving overall G/C content. BLAST searches of both oligonucleotides indicated no significant complementarity to any known gene sequence. 14-day or 7-day osmotic minipumps (for CCI experiments or naïve electrophysiology experiments respectively—Alzet Minipump, models 2002, 2001; Charles River, UK) containing oligonucleotides (1 μg/μl in sterile saline) were connected to canulae inserted under the dura of the spinal cord to level L5/6 and produced a predicted infusion rate of 0.5 μl/h. […]", "key": {"[1]": {"conditions": "icilin 80 μM topical, antisense-treated CCI animals"}, "[2]": {"conditions": "icilin 80 μM topical, mis-sense-treated CCI animals"}, "[3]": {"conditions": "icilin 1000 μM applied to paw, CCI Con, 15 mins"}, "[4]": {"conditions": "icilin 1000 μM applied to paw, CCI Con, 50 mins"}, "[5]": {"conditions": "icilin 1000 μM applied to paw, CCI Ipsi, 15 mins"}, "[6]": {"conditions": "icilin 1000 μM applied to paw, CCI Ipsi, 50 mins"}, "[7]": {"conditions": "icilin 2500 μM applied to paw, CCI Con, 15 mins"}, "[8]": {"conditions": "icilin 2500 μM applied to paw, CCI Con, 50 mins"}, "[9]": {"conditions": "icilin 2500 μM applied to paw, CCI Ipsi, 15 mins"}, "[10]": {"conditions": "icilin 2500 μM applied to paw, CCI Ipsi, 50 mins"}, "[11]": {"conditions": "icilin 5000 μM applied to paw, CCI Con, 15 mins"}, "[12]": {"conditions": "icilin 5000 μM applied to paw, CCI Con, 50 mins"}, "[13]": {"conditions": "icilin 5000 μM applied to paw, CCI Ipsi, 15 mins"}, "[14]": {"conditions": "icilin 5000 μM applied to paw, CCI Ipsi, 50 mins"}, "[15]": {"conditions": "icilin topical, antisense osmotic pumps depleted, 18 days following surgery"}}, "data": [{"compound": "CC(C)[C@@H]1CC[C@@H](C)C[C@H]1O", "note": "[(−)-menthol, 1R,2S,5R-(−)-menthol]", "values": [{"measurement": "reversal of sensitised responses", "setting": "topical, (−)-menthol 4 mM, isomenthol and (+)-menthol 8 mM and 16 mM", "value": "Specific reversal of sensitised responses"}]}, {"compound": "O=C1NC(c2cccc([N+](=O)[O-])c2)=CCN1c1ccccc1O", "note": "[icilin, 1-(2′-hydroxyphenyl)-4-(3″-nitrophenyl)-1,2,3,6-tetrahydropyrimidin-2-one]", "values": [{"measurement": "reversal of CCI-induced behavioural reflex sensitisation to thermal and mechanical stimuli", "setting": "icilin 80 μM topical, 5 min, bath at 30° C.", "value": "striking reversal"}, {"measurement": "% reversal of ipsilateral sensitisation, PWL", "setting": "[1]", "value": "7.7±7.4", "unit": "%"}, {"measurement": "% reversal of ipsilateral sensitisation, PWT", "setting": "[1]", "value": "9.4±8.2", "unit": "%"}, {"measurement": "% reversal of ipsilateral sensitisation, PWL", "setting": "[2]", "value": "82.8±6.9", "unit": "%"}, {"measurement": "% reversal of ipsilateral sensitisation, PWT", "setting": "[2]", "value": "58.7±8.2", "unit": "%"}, {"measurement": "analgesia on daily repeated application (Hargreaves' test)", "setting": "icilin 200 μM topical over four successive days", "value": "consistently causes analgesia"}, {"measurement": "Mechanical PWT", "setting": "[3]", "value": "4530.1 ± 300.5", "unit": "mN/mm^2"}, {"measurement": "Thermal PWL", "setting": "[3]", "value": "16.1 ± 0.5", "unit": "s"}, {"measurement": "Mechanical PWT", "setting": "[4]", "value": "4530.1 ± 300.5", "unit": "mN/mm^2"}, {"measurement": "Thermal PWL", "setting": "[4]", "value": "15.2 ± 0.4", "unit": "s"}, {"measurement": "Mechanical PWT", "setting": "[5]", "value": "702.8 ± 185.3", "unit": "mN/mm^2"}, {"measurement": "Thermal PWL", "setting": "[5]", "value": "16.4 ± 0.8", "unit": "s"}, {"measurement": "Mechanical PWT", "setting": "[6]", "value": "702.8 ± 185.3", "unit": "mN/mm^2"}, {"measurement": "Thermal PWL", "setting": "[6]", "value": "8.6 ± 0.2", "unit": "s"}, {"measurement": "Mechanical PWT", "setting": "[7]", "value": "4454.9 ± 245.9", "unit": "mN/mm^2"}, {"measurement": "Thermal PWL", "setting": "[7]", "value": "16.8 ± 0.9", "unit": "s"}, {"measurement": "Mechanical PWT", "setting": "[8]", "value": "4454.9 ± 245.9", "unit": "mN/mm^2"}, {"measurement": "Thermal PWL", "setting": "[8]", "value": "15.3 ± 0.7", "unit": "s"}, {"measurement": "Mechanical PWT", "setting": "[9]", "value": "651.9 ± 193.0", "unit": "mN/mm^2"}, {"measurement": "Thermal PWL", "setting": "[9]", "value": "16.4 ± 0.9", "unit": "s"}, {"measurement": "Mechanical PWT", "setting": "[10]", "value": "651.9 ± 193.0", "unit": "mN/mm^2"}, {"measurement": "Thermal PWL", "setting": "[10]", "value": "8.4 ± 0.6", "unit": "s"}, {"measurement": "Mechanical PWT", "setting": "[11]", "value": "2040.2 ± 115.2", "unit": "mN/mm^2"}, {"measurement": "Thermal PWL", "setting": "[11]", "value": "16.1 ± 0.9", "unit": "s"}, {"measurement": "Mechanical PWT", "setting": "[12]", "value": "4830.6 ± 0.0", "unit": "mN/mm^2"}, {"measurement": "Thermal PWL", "setting": "[12]", "value": "13.4 ± 0.7", "unit": "s"}, {"measurement": "Mechanical PWT", "setting": "[13]", "value": "412.2 ± 24.3", "unit": "mN/mm^2"}, {"measurement": "Thermal PWL", "setting": "[13]", "value": "16.7 ± 1.0", "unit": "s"}, {"measurement": "Mechanical PWT", "setting": "[14]", "value": "736.0 ± 26.3", "unit": "mN/mm^2"}, {"measurement": "Thermal PWL", "setting": "[14]", "value": "7.2 ± 0.6", "unit": "s"}, {"measurement": "% reversal of sensitisation, PWL", "setting": "[15]", "value": "83.7±10.1", "unit": "%"}, {"measurement": "% reversal of sensitisation, PWT", "setting": "[15]", "value": "54.0±7.2", "unit": "%"}]}]}
